Results: patent US20060115815A1 (priority 2002, published 2006)
Where two headings read alike, the source gives them in different places.

Tests used:
[1] = target: recombinant HIV-1 protease (Human immunodeficiency virus type 1 group M subtype B, UniProt P04585); test: biochemical; assay type: biochemical; conditions: for Ki: read-out: Enzymatic assay Ki
[2] = target: T1, 84V90M (Human immunodeficiency virus type 1 group M subtype B, UniProt P04585, I572V/L578M); test: biochemical; parameters: species or system HIV-1
[3] = tested on: WT; test: microbe, parasite or virus in culture; assay type: cell-based, HIV-1
[4] = target: T1, 84V90M; test: cell-based; parameters: species or system HIV-1
[5] = tested on: 30N82I88D; test: microbe, parasite or virus in culture; assay type: cell-based, HIV-1
[6] = tested on: 48V54V82A; test: microbe, parasite or virus in culture; assay type: cell-based, HIV-1
[7] = tested on: 46I50V; test: microbe, parasite or virus in culture; assay type: cell-based, HIV-1
[8] = tested on: mutant HIV-1 with I84V/L90M mutations in the protease gene; assay type: cell-based; conditions: MT-4, 84V90M; read-out: Cell-based assay (MT-4) EC50/nM 84V90M
[9] = tested on: WT HIV-1; test: microbe, parasite or virus in culture; assay type: cell-based
[10] = target: T1, 84V90M; test: Enzymatic assay, IC50 against 84V90M mutant protease; assay type: biochemical, HIV-1
[11] = tested on: 30N82I88D; parameters: species or system HIV-1; conditions: MT-4, 30N82I88D; read-out: Cell-based assay (MT-4) EC50/nM 30N82I88D
[12] = tested on: 48V54V82A; parameters: species or system HIV-1; conditions: MT-4, 48V54V82A; read-out: Cell-based assay (MT-4) EC50/nM 48V54V82A
[13] = tested on: wild-type HIV-1 strain IIIB; test: microbe, parasite or virus in culture; assay type: cell-based; conditions: read-out: EC50
[14] = tested on: MT-2 cells
[15] = tested on: 48V54V82S; parameters: species or system HIV-1; conditions: MT-4, 48V54V82S; read-out: Cell-based assay (MT-4) EC50/nM 48V54V82S
[16] = tested on: 46I50V; parameters: species or system HIV-1; conditions: MT-4, 46I50V; read-out: Cell-based assay (MT-4) EC50/nM 46I50V
[17] = tested on: 48V82A90M; parameters: species or system HIV-1; conditions: MT-4, 48V82A90M; read-out: Cell-based assay (MT-4) EC50/nM 48V82A90M
[18] = tested on: recombinant HIV-1 strains with resistance mutations in the protease gene; test: Cross-resistance profile assay, whole panel of mutant viruses; assay type: cell-based; conditions: {}
[19] = beagle, dog, in vivo, po
[20] = 84V90M enzyme, read-out: Enzymatic assay 84V90M IC50
[21] = MT-4, 84V90M, read-out: Cell-based assay (MT-4) EC50 84V90M
[22] = MT-4, 30N82I88D, read-out: Cell-based assay (MT-4) EC50 30N82I88D
[23] = read-out: Enzymatic assay WT IC50/nM
[24] = MT-4, WT, read-out: Cell-based assay (MT-4) EC50/nM WT
[25] = Human immunodeficiency virus 1, read-out: Cell-based assay (MT-4) EC50 WT
[26] = Human immunodeficiency virus 1, read-out: Cell-based assay (MT-4) EC50 30N82I88D
[27] = Human immunodeficiency virus 1, read-out: Cell-based assay (MT-4) EC50 48V54V82A
[28] = Human immunodeficiency virus 1, read-out: Cell-based assay (MT-4) EC50 46I50V
[29] = Human immunodeficiency virus 1, read-out: EC50 [nM] WT HIV-1

SMILES: CCOC(=O)C(C)OP(=O)(CCCNC(=O)c1cccc(CN2C(=O)N(Cc3ccc4[nH]nc(N)c4c3)[C@H](Cc3ccccc3)[C@H](O)[C@@H](O)[C@H]2Cc2ccccc2)c1)Oc1ccccc1 (stereo partly drawn)
- Ki [1]: 0.112 nM
- IC50 ([1]; read-out: Enzymatic assay WT IC50): 1.4 nM
- IC50 [2, 20]: 6.4 nM
- EC50 ([3]; read-out: Cell-based assay (MT-4) EC50 WT): 603 nM
- EC50 [4, 21]: 1280 nM
- EC50 [5, 22]: 678 nM
- EC50 ([6]; MT-4, 48V54V82A, read-out: Cell-based assay (MT-4) EC50 48V54V82A): 208 nM
- EC50 ([7]; MT-4, 46I50V, read-out: Cell-based assay (MT-4) EC50 46I50V): 209 nM

SMILES: CCOC(=O)C(C)OP(=O)(COc1ccc(C[C@@H]2[C@H](O)[C@@H](O)[C@@H](Cc3ccccc3)N(Cc3ccccc3)C(=O)N2Cc2ccccc2)cc1)Oc1ccccc1 (stereo partly drawn) [R=H, R1=Ph, R2=Mono-lac-Et]
- Ki [1]: 0.12 nM
- IC50 [1, 23]: 6.6 nM
- EC50 [8]: > 6000 nM
- EC50 [9, 24]: 1730 nM
- IC50 [10]: 56 nM
- EC50 [11]: 2790 nM
- EC50 [12]: > 6000 nM

SMILES: Nc1n[nH]c2ccc(CN3C(=O)N(Cc4cccc(OCc5ccccc5)c4)C(Cc4ccccc4)C(O)C(O)C3Cc3ccccc3)cc12 (stereo not drawn) [m-OBn]
- IC50 [2]: 27 nM
- EC50 [3, 25]: 218 nM
- EC50 [4]: 2420 nM
- EC50 [5, 26]: 82 nM
- EC50 [6, 27]: 709 nM
- EC50 [7, 28]: 601 nM

SMILES: CCOP(=O)(COc1ccc(CC(NC(=O)OC2COC3OCCC23)C(O)CN(CC(C)C)S(=O)(=O)c2ccc(OC)cc2)cc1)OCC (stereo not drawn) [drawing 651 R1=OEt R2=OEt]
- EC50 [13]: < 50 nM
- CC50 [14]: 5000 to 50000 nM

SMILES: N#Cc1cc(CN2C(=O)N(Cc3cccc(OCc4ccccc4)c3)[C@H](Cc3ccccc3)[C@H](O)[C@@H](O)[C@H]2Cc2ccccc2)ccc1F
- Ki [1]: 1.43 nM
- IC50 [1, 23]: 302 nM
- EC50 [8]: > 600 nM
- IC50 [10]: 114 nM

SMILES: Nc1n[nH]c2ccc(CN3C(=O)N(Cc4cccc(C(=O)O)c4)[C@H](Cc4ccccc4)[C@H](O)[C@@H](O)[C@H]3Cc3ccccc3)cc12
- IC50 [2, 20]: 27 nM
- EC50 [4, 21]: > 6000 nM
- EC50 [5, 22]: > 6000 nM

SMILES: CCOP(=O)(COc1ccc(C[C@@H]2[C@H](O)[C@@H](O)[C@@H](Cc3ccccc3)N(Cc3cccc(N)c3)C(=O)N2Cc2cccc(N)c2)cc1)OCC [R=H, R1=Ph-mNH2, R2=OCh2PO3Et2]
- EC50 [8]: 328 nM
- EC50 [9, 24]: 65 nM
- EC50 [11]: 16 nM
- EC50 [12]: 168 nM
- EC50 [15]: 146 nM
- EC50 [16]: 46 nM

SMILES: CCOC(=O)C(C)OP(=O)(CCNCc1ccc(C[C@H](NC(=O)O[C@H]2CO[C@H]3OCC[C@H]32)[C@H](O)CN(CC(C)C)S(=O)(=O)c2ccc(OC)cc2)cc1)Oc1ccccc1 (stereo partly drawn) [drawing 662 R1=Ph R2=Lac-Et]
- EC50 [13]: 50 to 500 nM
- CC50 [14]: > 50000 nM

SMILES: CCOC(=O)C(CC)OP(=O)(CCNCc1ccc(C[C@H](NC(=O)O[C@H]2CO[C@H]3OCC[C@H]32)[C@H](O)CN(CC(C)C)S(=O)(=O)c2ccc(OC)cc2)cc1)Oc1ccccc1 (stereo partly drawn) [drawing 662 R1=Ph R2=Hba-Et]
- EC50 [13]: 50 to 500 nM
- CC50 [14]: 5000 to 50000 nM

SMILES: CCOP(=O)(CCNC(=O)Oc1ccc(C[C@@H]2[C@H](O)[C@@H](O)[C@@H](Cc3ccc(OC)cc3)N(Cc3cccc(N)c3)C(=O)N2Cc2cccc(N)c2)cc1)OCC [R=OCH3, R1=Ph-mNH2, R2=OCONH(CH2)2PO3Et2]
- EC50 [8]: 2260 nM
- EC50 [11]: 77 nM
- EC50 [12]: 262 nM
- EC50 [15]: 214 nM
- EC50 [17]: 215 nM
- EC50 [16]: 184 nM

SMILES: CCOP(=O)(COc1ccc(C[C@H](NC(=O)O[C@H]2CO[C@H]3OCC[C@H]32)[C@H](O)CN(CC(C)C)S(=O)(=O)c2ccc(OC)cc2)cc1)OCC [Compound 13]
- CC50 [14]: 50000 nM

SMILES: Cc1c(O)cccc1C(=O)N[C@@H](CSc1ccccc1)[C@H](O)CN1C[C@H]2CCCC[C@H]2C[C@H]1C(=O)NC(C)(C)C [Nelfinavir]
- EC50 [9, 29]: 14 nM
- Total No. of Resistant Viruses [18]: 9
- AUC(2-24 hr) in PBMCs [19]: 33,000 nM · hr
- t1/2 [19]: 3.0 h
- t1/2 (hr) in PBMCs [19]: 3.0 h

SMILES: COc1ccc(CN2C(=O)N(Cc3ccc(O)cc3)[C@H](Cc3ccccc3)[C@H](O)[C@@H](O)[C@H]2Cc2ccccc2)cc1C#N
- Ki [1]: > 5 nM
- IC50 [1, 23]: 130 nM
- EC50 [8]: 3120 nM
- EC50 [9, 24]: 2010 nM
- IC50 [10]: 348 nM

SMILES: Nc1cccc(CN2C(=O)N(Cc3cccc(C(=O)O)c3)C(Cc3ccccc3)C(O)C(O)C2Cc2ccccc2)c1 (stereo not drawn)
- IC50 [2]: 299 nM
- EC50 [3, 25]: 2340 nM
- EC50 [4]: > 6000 nM
- EC50 [5, 26]: 3360 nM

SMILES: Nc1n[nH]c2ccc(CN3C(=O)N(CCCOCP(=O)(O)O)C(Cc4ccccc4)C(O)C(O)C3Cc3ccccc3)cc12 (stereo not drawn) [OCH2PO3H2]
- IC50 [2]: 137 nM
- EC50 [3, 25]: 1070 nM
- EC50 [4]: > 6000 nM

SMILES: O=C1N(Cc2ccccc2)[C@H](Cc2ccccc2)[C@H](O)[C@@H](O)[C@@H](Cc2ccccc2)N1Cc1ccc2[nH]ncc2c1 [drawing 870]
- EC50 [9, 24]: 193 nM
- EC50 [11]: 281 nM
- EC50 [12]: 705 nM
- EC50 [16]: 772 nM

SMILES: O=C1N(Cc2ccccc2)[C@H](Cc2ccccc2)[C@H](O)[C@@H](O)[C@@H](Cc2ccccc2)N1Cc1ccc2[nH]nc(O)c2c1
- Ki [1]: 0.42 nM
- IC50 [1, 23]: 6.6 nM
- EC50 [8]: > 600 nM
- EC50 [9, 24]: 1230 nM
- IC50 [10]: 85 nM
- EC50 [11]: 869 nM
- EC50 [12]: 774 nM
- EC50 [16]: 937 nM

SMILES: CCOP(=O)(CCNC(=O)Oc1ccc(C[C@@H]2[C@H](O)[C@@H](O)[C@@H](Cc3ccc(OC)cc3)N(Cc3ccc(O)cc3)C(=O)N2Cc2ccc(O)cc2)cc1)OCC [R=OCH3, R1=Ph-pOH, R2=OCONH(CH2)2PO3Et2]
- EC50 [8]: 495 nM
- EC50 [9, 24]: 33 nM
- EC50 [11]: 31 nM
- EC50 [15]: 51 nM
- EC50 [17]: 55 nM
- EC50 [16]: 223 nM

SMILES: CCOP(=O)(CCCNC(=O)c1cccc(CN2C(=O)N(Cc3cccc(N)c3)C(Cc3ccccc3)C(O)C(O)C2Cc2ccccc2)c1)OCC (stereo not drawn)
- IC50 [2]: 29 nM
- EC50 [3, 25]: 176 nM
- EC50 [4]: 824 nM
- EC50 [5, 26]: 171 nM
- EC50 [6, 27]: 233 nM
- EC50 [7, 28]: 195 nM

SMILES: CC(C)CN(C[C@@H](O)[C@H](Cc1ccccc1)NC(=O)O[C@H]1CCOC1)S(=O)(=O)c1ccc(N)cc1 [Amprenavir]
- EC50 [9, 29]: 20 nM
- Total No. of Resistant Viruses [18]: 4
- AUC(2-24 hr) in PBMCs [19]: 102,000 nM · hr
- t1/2 [19]: 1.7 h
- t1/2 (hr) in PBMCs [19]: 1.7 h
